Measured values published in patent US20230278972A1, “SUBSTITUTED HALOALKYL SULFONANILIDE HERBICIDES” (FMC Corporation, priority 2020, published 2023).

Key:
Format in all cases: in vivo
[1] = tested on: ragweed (common ragweed, Ambrosia artemisiifolia); experiment: Test A1 postemergence, ragweed
Description: (§1) Seeds of plant species selected from, blackgrass (Alopecurus myosuroides), corn (Zea mays), Foxtail, Giant (giant foxtail, Setaria faberi), goosegrass (Eleusine indica), kochia (Bassia scoparia), Oat, Wild (wild oat, Avena fatua), Pigweed, Palmer (palmer amaranth, palmer pigweed, Amaranthus palmeri), ragweed (common ragweed, Ambrosia artemisiifolia), Ryegrass, Italian (Italian ryegrass, Lolium multiflorum), soybean (Glycine max), and wheat (Triticum aestivum) were planted into a blend of loam soil and sand and treated preemergence with a directed soil spray using test chemicals formulated in a non-phytotoxic solvent mixture which included a surfactant. At the same time, plants selected from these crop and weed species and also galium (catchweed bedstraw, Galium aparine) and horseweed (Erigeron canadensis) were planted in pots containing the same blend of loam soil and sand and treated with postemergence applications of test chemicals formulated in the same manner. Plants ranged in height from 2 to 10 cm and were in the one- to two-leaf stage for the postemergence treatment. […] A dash (-) response means no test result.

rice (Oryza sativa) = experiment: Test B1 flooded paddy test, rice; details: 250 g ai/ha, Flood, applied to paddy water, 2-leaf stage, visually evaluated after 10 to 14 days
Description: (§2) A dash (-) response means no test result.

[2] = tested on: Ryegrass, Italian (Italian ryegrass, Lolium multiflorum); experiment: Test A1 postemergence, Ryegrass, Italian
Description: as §1

[3] = tested on: Pigweed, Palmer (palmer amaranth, palmer pigweed, Amaranthus palmeri); experiment: Test A1 postemergence, Pigweed, Palmer
Description: as §1

[4] = tested on: wheat (Triticum aestivum); experiment: Test A1 preemergence, wheat
Description: as §1

[5] = tested on: Oat, Wild (wild oat, Avena fatua); experiment: Test A1 postemergence, Oat, Wild
Description: as §1

[6] = tested on: blackgrass (Alopecurus myosuroides); experiment: Test A1 preemergence, blackgrass
Description: as §1

[7] = tested on: goosegrass (Eleusine indica); experiment: Test A1 postemergence, goosegrass
Description: as §1

[8] = tested on: Ryegrass, Italian (Italian ryegrass, Lolium multiflorum); experiment: Test A1 preemergence, Ryegrass, Italian
Description: as §1

corn (Zea mays) [9] = experiment: Test A1 preemergence, corn
Description: as §1

[10] = tested on: Foxtail, Giant (giant foxtail, Setaria faberi); experiment: Test A1 postemergence, Foxtail, Giant
Description: as §1

[11] = tested on: barnyardgrass (Echinochloa crus-galli); experiment: Test B1 flooded paddy test, barnyardgrass; details: 250 g ai/ha, Flood, applied to paddy water, 2-leaf stage, visually evaluated after 10 to 14 days
Description: as §2

[12] = tested on: blackgrass (Alopecurus myosuroides); experiment: Test A1 postemergence, blackgrass; details: Postemergence, 0 to 100 scale (0 no effect, 100 complete control)
Description: as §1

[13] = tested on: Pigweed, Palmer (palmer amaranth, palmer pigweed, Amaranthus palmeri); experiment: Test A1 preemergence, Pigweed, Palmer
Description: as §1

soybean (Glycine max) [14] = experiment: Test A1 preemergence, soybean
Description: as §1

kochia (Bassia scoparia) [15] = experiment: Test A1 preemergence, kochia
Description: as §1

[16] = tested on: goosegrass (Eleusine indica); experiment: Test A1 preemergence, goosegrass
Description: as §1

[17] = tested on: ragweed (common ragweed, Ambrosia artemisiifolia); experiment: Test A1 preemergence, ragweed
Description: as §1

soybean (Glycine max) [18] = experiment: Test A1 postemergence, soybean
Description: as §1

corn (Zea mays) [19] = experiment: Test A1 postemergence, corn; details: Postemergence
Description: as §1

[20] = tested on: Foxtail, Giant (giant foxtail, Setaria faberi); experiment: Test A1 preemergence, Foxtail, Giant
Description: as §1

kochia (Bassia scoparia) [21] = experiment: Test A1 postemergence, kochia
Description: as §1

[22] = tested on: galium (catchweed bedstraw, Galium aparine); experiment: Test A1 postemergence, galium
Description: as §1

[23] = tested on: ducksalad (Heteranthera limosa); experiment: Test B1 flooded paddy test, ducksalad; details: 250 g ai/ha, Flood, applied to paddy water, 2-leaf stage, visually evaluated after 10 to 14 days
Description: as §2

[24] = tested on: Oat, Wild (wild oat, Avena fatua); experiment: Test A1 preemergence, Oat, Wild
Description: as §1

[25] = tested on: wheat (Triticum aestivum); experiment: Test A1 postemergence, wheat
Description: as §1

[26] = 31 g ai/ha, postemergence, 0 to 100 scale (0 no effect, 100 complete control)
[27] = Postemergence, 125 g ai/ha, 0 to 100 scale
[28] = 31 g ai/ha, 0 to 100 scale (0 no effect, 100 complete control)
[29] = 125 g ai/ha, 0 to 100 scale, 0 no effect, 100 complete control

COC1CCN(C(=O)c2cc(NS(=O)(=O)C(F)(F)F)c(C)c(C)c2C)CC1 [Compound 367]
Ragweed plant response rating [1, 26]: 50 | Plant response rating, Ragweed [1, 27]: 70 | Plant response rating, Rice (0 to 100 scale, 0 is no effect, 100 is complete control) (rice (Oryza sativa)): 15 | Ryegrass, Italian plant response rating [2, 26]: 0 | Plant response rating, Ryegrass, Italian [2, 27]: 0 | Pigweed, Palmer plant response rating [3, 26]: 40 | Plant response rating, Pigweed, Palmer [3, 27]: 40 | Plant response rating, Wheat [4, 28]: 10 | Plant response rating, Wheat [4, 29]: 40 | Oat, Wild plant response rating [5, 26]: 0 | Plant response rating, Oat, Wild [5, 27]: 0 | Plant response rating, Blackgrass [6, 28]: 0 | Plant response rating, Blackgrass [6, 29]: 0 | Goosegrass plant response rating [7, 26]: 10 | Plant response rating, Goosegrass [7, 27]: 70 | Plant response rating, Ryegrass, Italian [8, 28]: 0 | Plant response rating, Ryegrass, Italian [8, 29]: 20 | Plant response rating, Corn (corn (Zea mays) [9]; [28]): 10 | Plant response rating, Corn (corn (Zea mays) [9]; [29]): 90 | Foxtail, Giant plant response rating [10, 26]: 10 | Plant response rating, Foxtail, Giant [10, 27]: 90 | Plant response rating, Barnyardgrass (0 to 100 scale, 0 is no effect, 100 is complete control) [11]: 60 | Plant response rating, Blackgrass ([12]; 31 g ai/ha, 10 days): 0 | Plant response rating, Blackgrass ([12]; 125 g ai/ha): 0 | Plant response rating, Pigweed, Palmer [13, 28]: 80 | Plant response rating, Pigweed, Palmer [13, 29]: 100 | Plant response rating, Soybean (soybean (Glycine max) [14]; [28]): 0 | Plant response rating, Soybean (soybean (Glycine max) [14]; [29]): 90 | Plant response rating, Kochia (kochia (Bassia scoparia) [15]; [28]): 0 | Plant response rating, Kochia (kochia (Bassia scoparia) [15]; [29]): 20 | Plant response rating, Goosegrass [16, 28]: 60 | Plant response rating, Goosegrass [16, 29]: 80 | Plant response rating, Ragweed [17, 28]: 20 | Plant response rating, Ragweed [17, 29]: 90 | Soybean plant response rating (soybean (Glycine max) [18]; [26]): 50 | Plant response rating, Soybean (soybean (Glycine max) [18]; [27]): 80 | Plant response rating, Corn (corn (Zea mays) [19]; 31 g ai/ha, 0 to 100 scale (0 no effect, 100 complete control), 10 days): 0 | Plant response rating, Corn (corn (Zea mays) [19]; 125 g ai/ha, 0 to 100 scale): 70 | Plant response rating, Foxtail, Giant [20, 28]: 90 | Plant response rating, Foxtail, Giant [20, 29]: 100 | Kochia plant response rating (kochia (Bassia scoparia) [21]; [26]): 20 | Plant response rating, Kochia (kochia (Bassia scoparia) [21]; [27]): 30 | Galium plant response rating [22, 26]: 50 | Plant response rating, Galium [22, 27]: 100 | Plant response rating, Ducksalad (0 to 100 scale, 0 is no effect, 100 is complete control) [23]: 80 | Plant response rating, Oat, Wild [24, 28]: 20 | Plant response rating, Oat, Wild [24, 29]: 30 | Wheat plant response rating [25, 26]: 0 | Plant response rating, Wheat [25, 27]: 20
